Source: ChEMBL document CHEMBL1201862, “PubChem BioAssay data set” (2004)
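The compound was tested at five concentrations on cells cultured in 96-well plates, with a 48-hour exposure period. Here, GI50 denotes the concentration required for 50% inhibition of growth.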 Activity calls are given as the source filed them. Cut-off read from the data, not from the text of the source: active = GI50 up to about 1.1 µM and inactive = higher.

Assays:
Assay in all cases: inhibition of tumour cell growth, NCI panel, 48 h
786-0 = test system: 786-0
A549 = test system: A549
DU-145 = test system: DU-145
HCT-116 = test system: HCT-116
HCT-15 = test system: HCT-15
HT-29 = test system: HT-29
LOX IMVI = test system: LOX IMVI
MDA-MB-435 = test system: MDA-MB-435
MOLT-4 = test system: MOLT-4
Malme-3M = test system: Malme-3M
NCI-H226 = test system: NCI-H226
RPMI-8226 = test system: RPMI-8226
SF-295 = test system: SF-295
SK-MEL-2 = test system: SK-MEL-2
SR = test system: SR
TK-10 = test system: TK-10
U-251 = test system: U-251
UACC-257 = test system: UACC-257
UACC-62 = test system: UACC-62
UO-31 = test system: UO-31

Compound | GI50 (786-0) | GI50 (A549) | GI50 (DU-145) | GI50 (HCT-116) | GI50 (HCT-15) [µM] | GI50 (HT-29) | GI50 (LOX IMVI) | GI50 (MDA-MB-435) | GI50 (MOLT-4) | GI50 (Malme-3M) | GI50 (NCI-H226) | GI50 (RPMI-8226) | GI50 (SF-295) | GI50 (SK-MEL-2) | GI50 (SR) | GI50 (TK-10) | GI50 (U-251) | GI50 (UACC-257) | GI50 (UACC-62) | GI50 (UO-31)
COC1=CC(=O)c2nc3ccccc3c3ccnc1c23 | 3.64 µM (inactive) | 1.12 µM (inactive) | 3.25 µM (inactive) | 1.2 µM (inactive) | 0.721 | 3.24 µM (inactive) | 0.565 µM (active) | 0.187 µM (active) | 4.01 µM (inactive) | 1.58 µM (inactive) | 10.8 µM (inactive) | 1.83 µM (inactive) | 4.48 µM (inactive) | 5.64 µM (inactive) | 1.56 µM (inactive) | 19.3 µM (inactive) | 5.05 µM (inactive) | 5.16 µM (inactive) | 1.07 µM (active) | 4.35 µM (inactive)
C(=C\c1nccs1)/c1cccc(/C=C/c2nccs2)n1 | > 50 µM (inactive) | > 50 µM (inactive) | > 50 µM (inactive) | > 50 µM (inactive) | > 50 | > 50 µM (inactive) | > 50 µM (inactive) | > 50 µM (inactive) | 38.4 µM (inactive) | > 50 µM (inactive) | > 50 µM (inactive) | > 50 µM (inactive) | > 50 µM (inactive) | > 50 µM (inactive) | > 50 µM (inactive) | > 50 µM (inactive) | 34.8 µM (inactive) | > 50 µM (inactive) | > 50 µM (inactive) | > 50 µM (inactive)
CC(=O)NNC(=S)N/C=C1/C(=O)Oc2ccccc2C1=O | > 100 µM (inactive) | > 100 µM (inactive) | > 100 µM (inactive) | > 100 µM (inactive) | > 100 | > 100 µM (inactive) | > 100 µM (inactive) | > 100 µM (inactive) | > 100 µM (inactive) | > 100 µM (inactive) | > 100 µM (inactive) | > 100 µM (inactive) | > 100 µM (inactive) | > 100 µM (inactive) | > 100 µM (inactive) | > 100 µM (inactive) | > 100 µM (inactive) | > 100 µM (inactive) | 51.6 µM (inactive) | > 100 µM (inactive)
CCCCCCCCCCCCCCCCCCNc1nc(=O)n(C2CC(O)C(COP(=O)(O)OCC3OC(n4ccc(N)nc4=O)C(O)C3O)O2)cc1F (stereo not given) | 8.34 µM (inactive) | 3.25 µM (inactive) | 25.1 µM (inactive) | 9.35 µM (inactive) | 12.7 | 13.1 µM (inactive) | 10.2 µM (inactive) | > 100 µM (inactive) | 25.9 µM (inactive) | 24.5 µM (inactive) | > 100 µM (inactive) | > 100 µM (inactive) | > 100 µM (inactive) | > 100 µM (inactive) | > 100 µM (inactive) | > 100 µM (inactive) | 23.7 µM (inactive) | > 100 µM (inactive) | 80.4 µM (inactive) | 24.5 µM (inactive)
N#CC12CC(C=O)=C(N)C1(C#N)CC(C=O)=C2N (stereo not given) | > 100 µM (inactive) | > 100 µM (inactive) | 46 µM (inactive) | 47.3 µM (inactive) | 8.34 | > 100 µM (inactive) | 34.4 µM (inactive) | 36.1 µM (inactive) | 50.8 µM (inactive) | 50.8 µM (inactive) | > 100 µM (inactive) | 52.6 µM (inactive) | > 100 µM (inactive) | 24.1 µM (inactive) | 37.7 µM (inactive) | > 100 µM (inactive) | 55.3 µM (inactive) | 32.3 µM (inactive) | 36.2 µM (inactive) | 70.1 µM (inactive)
COc1cc(O)c2c(=O)c(OC)c(-c3ccc(OC)c(O)c3)oc2c1 [AYANIN] | 12.5 µM (inactive) | 76.6 µM (inactive) | 20 µM (inactive) | 32.1 µM (inactive) | 14.3 | 79.1 µM (inactive) | 20.7 µM (inactive) | 34.7 µM (inactive) | 42.7 µM (inactive) | 24 µM (inactive) | > 100 µM (inactive) | 33.1 µM (inactive) | 7.78 µM (inactive) | > 100 µM (inactive) | 22.1 µM (inactive) | 17.6 µM (inactive) | > 100 µM (inactive) | 85.7 µM (inactive) | 23.5 µM (inactive) | 28.9 µM (inactive)
COc1ccc2c3c1OC1C34CCN(C)C(C2)C4=CC(I)C1(OC)OC (stereo not given) | 4.15 µM (inactive) | 22.2 µM (inactive) | 10.8 µM (inactive) | 3.93 µM (inactive) | 11.8 | 7.66 µM (inactive) | 7.33 µM (inactive) | 4.12 µM (inactive) | 3.15 µM (inactive) | 7.21 µM (inactive) | 18.6 µM (inactive) | 2.71 µM (inactive) | 41.5 µM (inactive) | 15.6 µM (inactive) | 2.36 µM (inactive) | 14.7 µM (inactive) | 16.2 µM (inactive) | 13.2 µM (inactive) | 14.6 µM (inactive) | 14.9 µM (inactive)
